ChEMBL document CHEMBL4834452, “Discovery of a novel series of substituted quinolines acting as anticancer agents and selective EGFR blocker: Molecular docking study” (Bioorg Med Chem Lett, 2021)

How the values were obtained:
MCF7 = assay: Anticancer activity against human MCF7 cells assessed as cell growth inhibition measured by MTT assay; type: functional, cell-based
[1] = target: Epidermal growth factor receptor (Homo sapiens, UniProt P00533); assay: Inhibition of recombinant wild type EGFR-TK (unknown origin) by ELISA
HCT-116 = assay: Anticancer activity against human HCT-116 cells assessed as cell growth inhibition measured by MTT assay; type: functional, cell-based
HepG2 = assay: Anticancer activity against human HepG2 cells assessed as cell growth inhibition measured by MTT assay; type: functional, cell-based
PC-3 = assay: Anticancer activity against human PC-3 cells assessed as cell growth inhibition measured by MTT assay; type: functional, cell-based

Chain of Epidermal growth factor receptor (P00533 whole entry): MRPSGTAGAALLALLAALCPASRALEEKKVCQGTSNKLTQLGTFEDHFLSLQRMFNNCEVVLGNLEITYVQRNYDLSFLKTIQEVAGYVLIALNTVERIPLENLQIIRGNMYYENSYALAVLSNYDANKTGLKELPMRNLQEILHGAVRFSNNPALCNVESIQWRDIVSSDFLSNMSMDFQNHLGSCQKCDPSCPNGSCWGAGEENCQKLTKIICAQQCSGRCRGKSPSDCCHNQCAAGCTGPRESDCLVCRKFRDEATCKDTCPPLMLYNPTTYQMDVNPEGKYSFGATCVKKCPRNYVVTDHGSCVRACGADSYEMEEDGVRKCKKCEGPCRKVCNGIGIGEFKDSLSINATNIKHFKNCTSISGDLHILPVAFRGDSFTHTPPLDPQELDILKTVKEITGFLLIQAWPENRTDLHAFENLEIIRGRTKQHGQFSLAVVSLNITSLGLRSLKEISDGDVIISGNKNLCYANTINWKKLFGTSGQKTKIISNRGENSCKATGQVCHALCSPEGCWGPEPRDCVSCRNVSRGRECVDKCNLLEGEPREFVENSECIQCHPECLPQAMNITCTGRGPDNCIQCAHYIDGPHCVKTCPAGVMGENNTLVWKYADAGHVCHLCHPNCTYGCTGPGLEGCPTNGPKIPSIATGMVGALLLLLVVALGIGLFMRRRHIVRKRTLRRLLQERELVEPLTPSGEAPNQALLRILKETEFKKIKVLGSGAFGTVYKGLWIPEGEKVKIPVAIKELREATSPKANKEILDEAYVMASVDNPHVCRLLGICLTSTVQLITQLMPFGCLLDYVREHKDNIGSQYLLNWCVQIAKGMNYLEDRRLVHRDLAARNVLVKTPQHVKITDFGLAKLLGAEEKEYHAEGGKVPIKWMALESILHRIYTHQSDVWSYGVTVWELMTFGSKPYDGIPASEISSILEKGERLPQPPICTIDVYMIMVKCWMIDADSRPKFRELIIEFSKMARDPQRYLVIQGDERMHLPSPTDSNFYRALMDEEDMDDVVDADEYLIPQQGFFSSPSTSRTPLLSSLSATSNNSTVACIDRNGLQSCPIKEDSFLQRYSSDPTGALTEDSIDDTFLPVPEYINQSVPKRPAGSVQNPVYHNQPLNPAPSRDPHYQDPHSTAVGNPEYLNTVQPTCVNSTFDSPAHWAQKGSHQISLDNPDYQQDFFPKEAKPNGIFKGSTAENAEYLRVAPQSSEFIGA

IC50 (MCF7) [µM]	IC50 [1] [µM]	IC50 (HCT-116) [µM]	IC50 (HepG2) [µM]	IC50 (PC-3) [µM]	Structure (SMILES)
11.3	1.13	20.4	21.5	35.2	COc1ccc(C(Nc2ccc(Cl)cc2)n2c(=O)ccc3cc(O)ccc32)cc1 (centres undefined)
10.8	0.96	19.6	18.3	32.9	COc1ccc(C(Nc2ccc(Br)cc2)n2c(=O)ccc3cc(O)ccc32)cc1 (centres undefined)
49.2	5.29	73.3	61.4	85.3	COc1ccc(NC(c2ccc(OC)cc2)n2c(=O)ccc3cc(O)ccc32)cc1 (centres undefined)
21.1	1.35	36.6	29.7	48	COc1ccc(C(Nc2ccc([N+](=O)[O-])cc2)n2c(=O)ccc3cc(O)ccc32)cc1 (centres undefined)
35.1	14.3	53.7	46.3	79.7	COc1ccc(C(Nc2ccccc2)n2c(=O)ccc3cc(O)ccc32)cc1 (centres undefined)
11.6		20.5	17.7	26.9	C#Cc1cccc(Nc2ncnc3cc(OCCOC)c(OCCOC)cc23)c1 [ERLOTINIB]
